# Experimental data published in ChEMBL document CHEMBL1124536, “Heteroaromatic analogues of the alpha 2-adrenoreceptor partial agonist clonidine” (J Med Chem, 1989).
# Key:
# [1] = target: T1, Adrenergic receptor alpha-2 (Rattus norvegicus) (UniProt P22086+P19328+P22909); test: In vitro antagonistic activity against alpha-2A adrenergic receptor in rat vas deferens; Ag means compound was agonist.; format: functional; settings: filed as agonist
# [2] = target: T2, Adrenergic receptor alpha-1 (Rattus norvegicus) (UniProt P15823+P23944+P43140); test: In vitro agonist activity against alpha-1 adrenergic receptor in rat anococcygeus; format: functional
# Rattus norvegicus [3] = test: Effective dose of the compound required to inhibit electrically evoked contractions of rat vas deferens after i.v. administration; format: functional; settings: iv
# [4] = target: T1, Adrenergic receptor alpha-2 (Rattus norvegicus); test: Antagonistic potency towards alpha-2 adrenergic receptor was determined by observing twich response of rat vas deferens after i.v. administration; format: functional, organism-based
# Rattus norvegicus [5] = organism: Rattus norvegicus; test: Maximum percent inhibition electrically evoked contractions of rat vas deferens by the compound was determined as test for its agonistic activity; format: functional
# [6] = target: T1, Adrenergic receptor alpha-2 (Rattus norvegicus); test: In vitro agonist activity against alpha-2A adrenergic receptor in rat vas deferens; format: functional, tissue-based
# [7] = target: T2, Adrenergic receptor alpha-1 (Rattus norvegicus); test: In vitro antagonistic activity against alpha-1 adrenergic receptor in rat anococcygeus; Ag means compound was agonist.; format: functional; settings: filed as agonist
# Rattus norvegicus [8] = organism: Rattus norvegicus; test: Antagonist activity against guanoxabenz-induced mydriasis in rat when given […]; format: functional
# [9] = target: T2, Adrenergic receptor alpha-1 (Rattus norvegicus); test: In vitro antagonistic activity against alpha-1 adrenergic receptor in rat anococcygeus; format: functional
# [10] = target: T1, Adrenergic receptor alpha-2 (Rattus norvegicus); test: In vitro agonist activity against Alpha-2 adrenergic receptor in rat vas deferens; format: functional, tissue-based
# [11] = target: T2, Adrenergic receptor alpha-1 (Rattus norvegicus); test: In vitro agonist activity against alpha-1 adrenoceptor in rat anococcygeus; format: functional
# [12] = target: T1, Adrenergic receptor alpha-2 (Rattus norvegicus); test: In vitro antagonistic activity against Alpha-2 adrenergic receptor in rat vas deferens; Ag means compound was agonist.; format: functional; settings: filed as agonist
# [13] = target: T2, Adrenergic receptor alpha-1 (Rattus norvegicus); test: In vitro antagonistic activity against alpha1 adrenoceptor in rat anococcygeus; Ag means compound was agonist.; format: functional; settings: filed as agonist
# [14] = target: T1, Adrenergic receptor alpha-2 (Rattus norvegicus); test: In vitro agonist activity against alpha-2 adrenoceptor in rat vas deferens; format: functional, tissue-based
# [15] = target: T1, Adrenergic receptor alpha-2 (Rattus norvegicus); test: In vitro antagonistic activity against alpha-2 adrenoceptor in rat vas deferens; Ag means compound was agonist.; format: functional; settings: filed as agonist
# [16] = target: T1, Adrenergic receptor alpha-2 (Rattus norvegicus); settings: Vas deferens
# Description: Inhibitory activity against Alpha-2 adrenergic receptor in rat vas deferens
# Rattus norvegicus [17] = organism: Rattus norvegicus; test: Antagonist potency for alpha 2 adrenoceptor; format: functional, organism-based; settings: read-out: pA2 (converted)
# [18] = target: T1, Adrenergic receptor alpha-2 (Rattus norvegicus); test: In vitro antagonistic activity against alpha-2A adrenergic receptor in rat vas deferens; format: functional, tissue-based
# [19] = target: T1, Adrenergic receptor alpha-2 (Rattus norvegicus); test: In vitro antagonistic activity against alpha-2 adrenoceptor in rat vas deferens; format: functional, tissue-based
# [20] = target: T2, Adrenergic receptor alpha-1 (Rattus norvegicus); test: In vitro antagonistic activity against Alpha-1 adrenergic receptor in rat anococcygeus; format: functional
smiles,measurement,setting,value
CN1CCOc2cc(NC3=NCCN3)ccc21.I,Activity,[1],Agonist
same,Potency,[2],0.0002
same,ED40,Rattus norvegicus [3],6.74 mg/kg
same,DR2 (ug min-1 kg-1),[4],4.62
same,Inhibition,Rattus norvegicus [5],65%
same,Potency,[6],0.03
same,Activity,[7],Agonist
same,AD50,Rattus norvegicus [8],0.0589 mg/kg
CC(=O)N1CCOc2ccc(NC3=NCCN3)cc21.I,Potency,[1],Agonist
same,Potency,[2],0
same,Potency,[9],0.0006
same,ED40,Rattus norvegicus [3],0.0179 mg/kg
same,Inhibition,Rattus norvegicus [5],69%
same,Potency,[6],0.1
same,AD50,Rattus norvegicus [8],>0.2 mg/kg
c1cc2c(cc1NC1=NCCN1)OCCO2,Potency,[10],1.5
same,Potency,[11],0.01
same,Potency,[12],Agonist
same,Potency,[13],Agonist
CCN1CCOc2cc(NC3=NCCN3)ccc21,Potency,[1],Agonist
same,Potency,[2],0.055
same,Potency,[6],< 0.01
same,Potency,[7],Agonist
CC(=O)N1CCc2ccc(NC3=NCCN3)cc21,Potency,[1],Agonist
same,Potency,[2],0
same,Potency,[9],2e-05
same,Potency,[6],0.006
c1ccc(CN2CCOc3cc(NC4=NCCN4)ccc32)cc1,Potency,[1],Agonist
same,Potency,[2],0
same,Potency,[9],0.001
same,Potency,[6],0.02
O=CN1CCOc2cc(NC3=NCCN3)ccc21,Potency,[14],0.006
same,Potency,[11],0.02
same,Potency,[13],Agonist
same,Potency,[15],Agonist
Nc1cc(Cl)c(N=C2NCCN2)c(Cl)c1,IC40,[16],1.99 nM
c1ccc2c(c1)OCC(C1=NCCN1)O2 (centres undefined) [IDAZOXAN],DR2 (ug min-1 kg-1),[4],2
same,Kb,Rattus norvegicus [17],10.5 nM
same,AD50,Rattus norvegicus [8],0.02936 mg/kg
CCN1CCc2ccc(NC3=NCCN3)cc21,Potency,[2],0.17
same,Potency,[6],0
same,Potency,[7],Agonist
same,Potency,[18],0.04
Clc1cccc(Cl)c1NC1=NCCN1,Potency,[14],0.49
same,Potency,[11],0.8
same,Potency,[13],Agonist
same,Potency,[15],Agonist
O=C1COc2cc(NC3=NCCN3)ccc2N1,Potency,[14],0
same,Potency,[11],0.006
same,Potency,[13],Agonist
same,Potency,[19],0.0013
I.O=CN1CCOc2ccc(NC3=NCCN3)cc21,Potency,[20],0.0006
same,Potency,[1],Agonist
same,ED40,Rattus norvegicus [3],0.385 mg/kg
same,DR2 (ug min-1 kg-1),[4],6.8
same,Inhibition,Rattus norvegicus [5],62%
same,Potency,[6],0.02
same,AD50,Rattus norvegicus [8],0.297 mg/kg
c1cc2c(cc1NC1=NCCN1)OCO2,Potency,[2],0
same,Potency,[9],0.003
same,Potency,[6],0.03
same,Potency,[18],0.025
Brc1c(NC2=NCCN2)ccc2nccnc12 [BRIMONIDINE],ED40,Rattus norvegicus [3],0.0033 mg/kg
same,Inhibition,Rattus norvegicus [5],100%
CN1CCOc2ccc(NC3=NCCN3)cc21,Potency,[1],Agonist
same,Potency,[2],0.5
same,Potency,[6],0.025
same,Potency,[7],Agonist
CS(=O)(=O)N1CCOc2ccc(NC3=NCCN3)cc21.I,Potency,[1],Agonist
same,Potency,[2],0
same,Potency,[9],0.0005
same,ED40,Rattus norvegicus [3],0.0273 mg/kg
same,Inhibition,Rattus norvegicus [5],70%
same,Potency,[6],0.22
same,AD50,Rattus norvegicus [8],>0.3 mg/kg
O=C1COc2ccc(NC3=NCCN3)cc2N1,Potency,[2],0.002
same,Potency,[6],0
same,Potency,[7],Agonist
same,Potency,[18],0.0005
